In ChEMBL document CHEMBL5620368, “Molecular-level strategic goals and repressors in Leishmaniasis - Integrated data to accelerate target-based heterocyclic scaffolds” (Eur J Med Chem, 2023) one finds IC50 and Activity data, which are given here for twelve compounds.

SMILES strings stand for the structures. In brackets after ≈: the same amount, converted by molar mass.

For data set [1], the system named is Leishmania braziliensis. In words: Antileishmanial activity against Leishmania braziliensis MHOM/Br/75/M2903 promastigotes assessed as reduction in parasite growth incubated for 72 hrs by MTT assay. Type of data set: functional, organism-based. The note with it: MHOM/Br/75/M2903, 72 h. A general note: Formazan colour is commonly taken as a measure of viable cells.

The subject of data set [2] is Leishmania braziliensis. As to the kind of experiment: Antileishmanial activity against Leishmania braziliensis MHOM/Br/75/M2903 amastigotes assessed as reduction in parasite growth incubated for 72 hrs by MTT assay. The class given is functional, organism-based. The note with it: MHOM/Br/75/M2903, 72 h.
Data set [3] concerns Leishmania donovani. As to the kind of experiment: Antileishmanial activity against Leishmania donovani amastigotes assessed as parasite growth inhibition incubated for 72 hrs by MTS assay. Type of data set: functional, organism-based.
Data set [4] deals with Leishmania major. In words: Antileishmanial activity against Leishmania major amastigotes assessed as reduction in parasite growth incubated for 72 hrs by MTS assay. Type of data set: functional, organism-based.
Data set [5] can be described thus: Inhibition of Leishmania infantum Trypanothione reductase expressed in Escherichia coli BL21 (DE3) using trypanothione as substrate preincubated for 3 mins followed NADPH addition by Dixon plot analysis.
A short description of data set [6]: Cytotoxicity against mouse Peritoneal macrophages assessed as reduction in cell viability incubated for 24 hrs by MTT assay. The class given is toxicity, cell-based, Peritoneal macrophage.
Data set [7] relates to Leishmania amazonensis. As to the kind of experiment: Antileishmanial activity against axenic amastigote form of patient derived Leishmania amazonensis MHOM/BR/77/LTB001 assessed as parasite growth inhibition incubated for 24 hrs. The note with it: MHOM/BR/77/LTB001, 24 h. Type of data set: functional, organism-based.
Data set [8] has as its system Leishmania amazonensis. In words: Antileishmanial activity against Leishmania amazonensis promastigotes assessed as parasite growth inhibition incubated for 24 hrs. The class given is functional, organism-based.
The subject of data set [9] is Leishmania donovani. As to the kind of experiment: Antileishmanial activity against Leishmania donovani promastigotes assessed as reduction in parasitic growth by MTT assay. The class given is functional, organism-based.
Data set [10] concerns Leishmania tropica. As to the kind of experiment: Antileishmanial activity against Leishmania tropica promastigote assessed as inhibition of parasite growth incubated for 72 hrs by MTT assay. Type of data set: functional, organism-based.
The target of data set [11] is Trypanothione reductase (Leishmania donovani, UniProt P39050). In words: Inhibition of Leishmania donovani Trypanothione reductase.
Trypanothione reductase, sequence (P39050 whole entry): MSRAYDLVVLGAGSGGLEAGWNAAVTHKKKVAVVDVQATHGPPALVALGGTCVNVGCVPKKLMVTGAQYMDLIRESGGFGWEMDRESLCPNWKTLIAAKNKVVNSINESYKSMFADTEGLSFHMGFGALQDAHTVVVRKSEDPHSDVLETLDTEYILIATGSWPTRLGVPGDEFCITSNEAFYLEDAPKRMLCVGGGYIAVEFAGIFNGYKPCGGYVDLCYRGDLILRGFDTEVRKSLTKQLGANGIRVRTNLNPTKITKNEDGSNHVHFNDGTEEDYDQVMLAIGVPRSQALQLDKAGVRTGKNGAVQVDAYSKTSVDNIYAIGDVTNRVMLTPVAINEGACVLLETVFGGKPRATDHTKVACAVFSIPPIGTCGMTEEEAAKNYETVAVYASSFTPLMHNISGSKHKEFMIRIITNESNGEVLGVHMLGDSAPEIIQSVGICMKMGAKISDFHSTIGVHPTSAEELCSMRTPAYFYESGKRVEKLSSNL
Data set [12] concerns Leishmania donovani. As to the kind of experiment: Antileishmanial activity against Leishmania donovani promastigotes assessed as reduction in parasite growth incubated for 48 hrs by MTT assay. The class given is functional, organism-based.
The test system of data set [13] is Leishmania infantum. In words: Antiprotozoal activity against Leishmania infantum intracellular amastigotes infected in human THP-1 derived macrophage cells assessed as reduction in parasite viability measured for 72 hrs by resazurin/alamar blue fluorometric assay. The class given is functional, organism-based. The following applies: THP-1, 72 h. (The colour change of resazurin is a common sign of viable cells or microbes.)

The subject of data set [14] is Leishmania infantum. As to the kind of experiment: Antileishmanial activity against Leishmania infantum promastigotes assessed as reduction in cell viability incubated for 24 hrs by propidium iodide staining based flow cytometry assay. The class given is functional, organism-based. For orientation: Flow cytometry measures light scatter and fluorescence of single cells or particles in a stream.

Data set [15] can be described thus: Inhibition of recombinant Leishmania mexicana Trypanothione reductase.
For data set [16], the system named is Leishmania amazonensis. As to the kind of experiment: Antileishmanial activity against Leishmania amazonensis intracellular amastigotes assessed as parasite growth inhibition at 109 uM incubated for 96 hrs relative to control. Also on record: scale not given: the % may be the effect or the level left. The class given is functional.

A word on the IC50: it is the point on the concentration scale where inhibition reaches its midpoint. With `Oc1ccc(/C=N\Nc2ccccc2)c(O)c1`, the figures for the IC50 in [1] and in data set [2] were 7.3 µM and 21.7 µM, respectively.
As to `C/C=C(\CC[C@@H](C)[C@H]1CC[C@H]2[C@@H]3CC=C4C[C@@H](O)CC[C@]4(C)[C@H]3CC[C@]12C)C(C)C` [FUCOSTEROL], the IC50 was 18.5 µg/mL (≈ 44.8 µM) in data set [3] and 19 µg/mL (≈ 46 µM) in [4].
Consider `Cc1cc(NC(=O)c2ccc([N+](=O)[O-])s2)ccc1Br`, for which the IC50 in [5] was found to be 0.19 µM.
For the compound `CC/C=C\C/C=C\CCC/C=C/C=C/C=C\CCCC(=O)O`, the IC50 at 24 h in [6] is 2 µM.
In the case of `CC1=CC(=O)C[C@H]2[C@H]1CC[C@@H](C)C21C[C@H](c2ccoc2)OC1=O` (stereo partly specified), the IC50 in [7] is 20 µg/mL (≈ 63.6 µM); in data set [8], 6.3 µg/mL (≈ 20 µM).
With `COC(=O)c1ccc(C2OC(C)(C)C3CC(=O)C(C)C2C3)cc1` (stereo unspecified), the IC50 in data set [9] stood at 4.9 µM.
On to `C[C@@H]1O[C@@H](OC[C@H]2O[C@@H](Oc3c(-c4ccc(O)c(O)c4)oc4cc(O)cc(O)c4c3=O)[C@H](O)[C@@H](O)[C@@H]2O)[C@H](O)[C@H](O)[C@H]1O` [RUTIN], for which the IC50 in data set [10] turned out to be 91.2 µg/mL (≈ 149 µM).
In turn, `O[C@H](CC1c2ccccc2-c2ccccc21)CN1CCN(C[C@H](O)C[C@@H]2c3ccc(Br)cc3-c3cc(Br)cc(Br)c32)CC1` yielded an IC50 in data set [11] of 98.4 µM.
On to `CC[C@H](CC[C@@H](C)[C@H]1CC[C@H]2[C@@H]3CC=C4C[C@@H](O)CC[C@]4(C)[C@H]3CC[C@]12C)C(C)C` [BETA-SITOSTEROL], for which the IC50 in data set [12] was 17.7 µg/mL (≈ 42.7 µM).
Consider `CC[C@@]1(O)C(=O)OCc2c1cc1n(c2=O)Cc2c-1nc1ccccc1c2/C=N/OC(C)(C)C` [GIMATECAN], for which the half-maximal inhibitory concentration (IC50) in [13] is 0.1 µM; in data set [14], 1.73 µM.
As for `O=C(NCc1ccc2ncccc2c1)c1cnn(-c2ncc3c(n2)-c2ccccc2CCC3)c1C1CC1`, the IC50 in data set [15] came out at 58 µM.
For `C=C(C)[C@@H]1CC[C@@]2(C)[C@H]1[C@H]1CC[C@@H]3[C@@]4(C)CC[C@H](O)C(C)(C)[C@@H]4[C@H](O)C[C@@]3(C)[C@]1(C)C[C@@H]2O`, in data set [16], the Activity is 80%.
